Reference: paper PMC6934184, “Selective DNA-PKcs inhibition extends the therapeutic index of localized radiotherapy and chemotherapy” (The Journal of Clinical Investigation, 2019)

Target: T1, PIM1 (Homo sapiens, UniProt P11309)
T1 construct: purchased Thermo Fisher Scientific (Life Technologies) SelectScreen
Assay: SelectScreen Z'LYTE
Type: biochemical
Procedure, shortened: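 SelectScreen broad panel; activity (Z'LYTE, Adapta) plus binding formats. ATP: Km app for CSF1R Z'LYTE; 10 for CAMK1 Adapta. Readout = % per kinase.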

T1 sequence (P11309 whole entry): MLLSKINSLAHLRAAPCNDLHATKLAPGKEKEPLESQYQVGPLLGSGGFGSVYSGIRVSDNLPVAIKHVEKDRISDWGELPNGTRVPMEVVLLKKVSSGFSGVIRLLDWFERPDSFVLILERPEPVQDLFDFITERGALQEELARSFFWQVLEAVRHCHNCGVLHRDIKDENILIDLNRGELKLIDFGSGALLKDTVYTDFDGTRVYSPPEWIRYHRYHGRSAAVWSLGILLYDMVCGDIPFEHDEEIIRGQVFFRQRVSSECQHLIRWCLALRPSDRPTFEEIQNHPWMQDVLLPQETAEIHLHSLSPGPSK

Work on CN(C(=O)CN1CCOCC1)c1ccc2sc3c(-c4cccc5c(=O)cc(N6CC7CCC(C6)O7)oc45)cccc3c2c1 [NU5455] yielded an inhibition at 1 µM of -1%.
